According to patent US20260015358A1, “BICYCLIC DERIVATIVES, COMPOSITIONS AND USES THEREOF” (Danatlas Pharmaceuticals Co., Ltd., priority 2023, published 2026):

How the values were obtained:
[1] = target: T1, WRN [UniPro: Q14191 (WRN_HUMAN), N500-C946] (Homo sapiens (Human), UniProt Q14191); assay: WRN ATPase assay (ADP-Glo); assay type: biochemical; settings: WRN enzymatic activity assay
[2] = target: T1, WRN [UniPro: Q14191 (WRN_HUMAN), N500-C946]; assay: WRN unwinding assay (FORKF DNA, fluorescence); assay type: biochemical; settings: Table 14

T1 sequence (Q14191 500-946): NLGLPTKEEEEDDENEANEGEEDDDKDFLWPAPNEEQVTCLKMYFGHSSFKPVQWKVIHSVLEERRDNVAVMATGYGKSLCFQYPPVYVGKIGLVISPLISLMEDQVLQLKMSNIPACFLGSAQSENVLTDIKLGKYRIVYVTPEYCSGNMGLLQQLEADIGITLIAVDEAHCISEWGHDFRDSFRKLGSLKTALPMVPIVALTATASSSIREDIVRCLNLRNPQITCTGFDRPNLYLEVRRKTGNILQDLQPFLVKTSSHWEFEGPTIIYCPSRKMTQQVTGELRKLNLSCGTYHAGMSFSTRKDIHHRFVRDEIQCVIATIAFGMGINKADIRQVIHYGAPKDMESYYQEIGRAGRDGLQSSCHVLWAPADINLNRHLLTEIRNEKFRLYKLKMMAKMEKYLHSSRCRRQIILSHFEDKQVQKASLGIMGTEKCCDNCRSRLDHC

| Compound | IC50 [1] [nM] | IC50 [2] [nM] |
| --- | --- | --- |
| CCc1c(N2CCN(C(=O)CNC(=O)c3cccc(N)c3)CC2)c(=O)n2nc(C3=CCOCC3)nc2n1CC(=O)Nc1ccc(C(F)(F)F)cc1Cl [Example 288, 3-Amino-N-(2-(4-(4-(2-((2-chloro-4-(trifluoromethyl)phenyl)amino)-2-oxoethyl)-2-(3,6-dihydro-2H-pyran-4-yl)-5-ethyl-7-oxo-4,7-dihydro-[1,2,4]triazolo[1,5-a]pyrimidin-6-yl)piperazin-1-yl)-2-oxoethyl)benzamide] | < 100 | < 100 |
| CCc1c(N2CCN(C(=O)CNC(=O)c3cc(NC)ccc3F)CC2)c(=O)n2nc(C3=CCOCC3)nc2n1CC(=O)Nc1ccc(C(F)(F)F)cc1Cl [Example 289, N-(2-(4-(4-(2-((2-Chloro-4-(trifluoromethyl)phenyl)amino)-2-oxoethyl)-2-(3,6-dihydro-2H-pyran-4-yl)-5-ethyl-7-oxo-4,7-dihydro-[1,2,4]triazolo[1,5-a]pyrimidin-6-yl)piperazin-1-yl)-2-oxoethyl)-2-fluoro-5-(methylamino)benzamide] | < 100 | < 100 |
| CCc1c(N2CCN(C(=O)CNC(=O)c3cc(O)ccc3F)CC2)c(=O)n2nc(C3=CCOCC3)nc2n1CC(=O)Nc1ccc(C(F)(F)F)cc1Cl [Example 290, N-(2-(4-(4-(2-((2-Chloro-4-(trifluoromethyl)phenyl)amino)-2-oxoethyl)-2-(3,6-dihydro-2H-pyran-4-yl)-5-ethyl-7-oxo-4,7-dihydro-[1,2,4]triazolo[1,5-a]pyrimidin-6-yl)piperazin-1-yl)-2-oxoethyl)-2-fluoro-5-hydroxybenzamide] | < 100 | < 100 |
| CCc1c(N2CCN(C(=O)CNC(=O)c3cc(O)cc(F)c3)CC2)c(=O)n2nc(C3=CCOCC3)nc2n1CC(=O)Nc1ccc(C(F)(F)F)cc1Cl [Example 291, N-(2-(4-(4-(2-((2-Chloro-4-(trifluoromethyl)phenyl)amino)-2-oxoethyl)-2-(3,6-dihydro-2H-pyran-4-yl)-5-ethyl-7-oxo-4,7-dihydro-[1,2,4]triazolo[1,5-a]pyrimidin-6-yl)piperazin-1-yl)-2-oxoethyl)-3-fluoro-5-hydroxybenzamide] | < 100 | < 100 |
| CCc1c(N2CCN(C(=O)CNC(=O)c3ccc(F)c(O)c3)CC2)c(=O)n2nc(C3=CCOCC3)nc2n1CC(=O)Nc1ccc(C(F)(F)F)cc1Cl [Example 292, N-(2-(4-(4-(2-((2-Chloro-4-(trifluoromethyl)phenyl)amino)-2-oxoethyl)-2-(3,6-dihydro-2H-pyran-4-yl)-5-ethyl-7-oxo-4,7-dihydro-[1,2,4]triazolo[1,5-a]pyrimidin-6-yl)piperazin-1-yl)-2-oxoethyl)-4-fluoro-3-hydroxybenzamide] | < 100 | < 100 |
| CCc1c(N2CCN(C(=O)CNC(=O)c3cccc(O)c3F)CC2)c(=O)n2nc(C3=CCOCC3)nc2n1CC(=O)Nc1ccc(C(F)(F)F)cc1Cl [Example 293, N-(2-(4-(4-(2-((2-Chloro-4-(trifluoromethyl)phenyl)amino)-2-oxoethyl)-2-(3,6-dihydro-2H-pyran-4-yl)-5-ethyl-7-oxo-4,7-dihydro-[1,2,4]triazolo[1,5-a]pyrimidin-6-yl)piperazin-1-yl)-2-oxoethyl)-2-fluoro-3-hydroxybenzamide] | < 100 | < 100 |
| CCc1c(N2CCN(C(=O)CNC(=O)c3c(O)cc(C)oc3=O)CC2)c(=O)n2nc(C3=CCOCC3)nc2n1CC(=O)Nc1ccc(C(F)(F)F)cc1Cl [Example 295, N-(2-(4-(4-(2-((2-Chloro-4-(trifluoromethyl)phenyl)amino)-2-oxoethyl)-2-(3,6-dihydro-2H-pyran-4-yl)-5-ethyl-7-oxo-4,7-dihydro-[1,2,4]triazolo[1,5-a]pyrimidin-6-yl)piperazin-1-yl)-2-oxoethyl)-4-hydroxy-6-methyl-2-oxo-2H-pyran-3-carboxamide] | 100 to 1000 | > 1000 |
| CCc1c(N2CCN(C(=O)c3cc4ccnn4cn3)CC2)c(=O)n2nc(C3=CCOCC3)nc2n1CC(=O)Nc1ccc(C(F)(F)F)cc1Cl [Example 296, N-(2-Chloro-4-(trifluoromethyl)phenyl)-2-(2-(3,6-dihydro-2H-pyran-4-yl)-5-ethyl-7-oxo-6-(4-(pyrazolo[1,5-c]pyrimidine-5-carbonyl)piperazin-1-yl)-[1,2,4]triazolo[1,5-a]pyrimidin-4(7H)-yl)acetamide] | 100 to 1000 | 100 to 1000 |
| CCc1c(N2CCN(C(=O)c3cnc4sc(Br)cc4c3O)CC2)c(=O)n2nc(C3=CCOCC3)nc2n1CC(=O)Nc1ccc(C(F)(F)F)cc1F [Example 297, 2-(6-(4-(2-Bromo-4-hydroxythieno[2,3-b]pyridine-5-carbonyl)piperazin-1-yl)-2-(3,6-dihydro-2H-pyran-4-yl)-5-ethyl-7-oxo-[1,2,4]triazolo[1,5-a]pyrimidin-4(7H)-yl)-N-(2-fluoro-4-(trifluoromethyl)phenyl)acetamide] | < 100 | < 100 |
| CCc1c(N2CCN(C(=O)c3cnn4cccc4c3O)CC2)c(=O)n2nc(C3=CCOCC3)nc2n1CC(=O)Nc1sc(C)cc1C [Example 298, 2-(2-(3,6-Dihydro-2H-pyran-4-yl)-5-ethyl-6-(4-(4-hydroxypyrrolo[1,2-b]pyridazine-3-carbonyl)piperazin-1-yl)-7-oxo-[1,2,4]triazolo[1,5-a]pyrimidin-4(7H)-yl)-N-(3,5-dimethylthiophen-2-yl)acetamide] | < 100 | < 100 |
| CCc1c(N2CCN(C(=O)c3[nH]cnc3F)CC2)c(=O)n2nc(C3=CCOCC3)nc2n1CC(=O)Nc1ccc(C(F)(F)F)cc1Cl [Example 299, N-(2-Chloro-4-(trifluoromethyl)phenyl)-2-(2-(3,6-dihydro-2H-pyran-4-yl)-5-ethyl-6-(4-(4-fluoro-1H-imidazole-5-carbonyl)piperazin-1-yl)-7-oxo-[1,2,4]triazolo[1,5-a]pyrimidin-4(7H)-yl)acetamide] | 100 to 1000 | 100 to 1000 |
| CCc1c(N2CCN(C(=O)c3[nH]c4ccncc4c3F)CC2)c(=O)n2nc(C3=CCOCC3)nc2n1CC(=O)Nc1ccc(C(F)(F)F)cc1Cl [Example 300, N-(2-Chloro-4-(trifluoromethyl)phenyl)-2-(2-(3,6-dihydro-2H-pyran-4-yl)-5-ethyl-6-(4-(3-fluoro-1H-pyrrolo[3,2-c]pyridine-2-carbonyl)piperazin-1-yl)-7-oxo-[1,2,4]triazolo[1,5-a]pyrimidin-4(7H)-yl)acetamide] | 100 to 1000 | 100 to 1000 |
| CCc1c(N2CCN(C(=O)CNC(=O)c3nc(C)co3)CC2)c(=O)n2nc(C3=CCOCC3)nc2n1CC(=O)Nc1ccc(C(F)(F)F)cc1Cl [Example 301, N-(2-(4-(4-(2-((2-Chloro-4-(trifluoromethyl)phenyl)amino)-2-oxoethyl)-2-(3,6-dihydro-2H-pyran-4-yl)-5-ethyl-7-oxo-4,7-dihydro-[1,2,4]triazolo[1,5-a]pyrimidin-6-yl)piperazin-1-yl)-2-oxoethyl)-4-methyloxazole-2-carboxamide] | 100 to 1000 | 100 to 1000 |
| CCc1c(N2CCN(C(=O)c3cnn4ccc(C)c4c3O)CC2)c(=O)n2nc(C3=CCOCC3)nc2n1CC(=O)Nc1ccc(C(F)(F)F)cc1Cl [Example 303, N-(2-Chloro-4-(trifluoromethyl)phenyl)-2-(2-(3,6-dihydro-2H-pyran-4-yl)-5-ethyl-6-(4-(4-hydroxy-5-methylpyrrolo[1,2-b]pyridazine-3-carbonyl)piperazin-1-yl)-7-oxo-[1,2,4]triazolo[1,5-a]pyrimidin-4(7H)-yl)acetamide] | < 100 | < 100 |
| CCc1c(N2CCN(C(=O)c3c(O)nn4ccccc34)CC2)c(=O)n2nc(C3=CCOCC3)nc2n1CC(=O)Nc1ccc(C(F)(F)F)cc1Cl [Example 304, N-(2-Chloro-4-(trifluoromethyl)phenyl)-2-(2-(3,6-dihydro-2H-pyran-4-yl)-5-ethyl-6-(4-(2-hydroxypyrazolo[1,5-a]pyridine-3-carbonyl)piperazin-1-yl)-7-oxo-[1,2,4]triazolo[1,5-a]pyrimidin-4(7H)-yl) acetamide] | < 100 | < 100 |
| CCc1c(N2CCN(C(=O)c3nc4ccsc4cc3O)CC2)c(=O)n2nc(C3=CCOCC3)nc2n1CC(=O)Nc1ccc(C(F)(F)F)cc1Cl [Example 305, N-(2-Chloro-4-(trifluoromethyl)phenyl)-2-(2-(3,6-dihydro-2H-pyran-4-yl)-5-ethyl-6-(4-(6-hydroxythieno[3,2-b]pyridine-5-carbonyl)piperazin-1-yl)-7-oxo-[1,2,4]triazolo[1,5-a]pyrimidin-4(7H)-yl)acetamide] | < 100 | < 100 |
| CCc1c(N2CCN(C(=O)c3nc4ccccc4cc3O)CC2)c(=O)n2nc(C3=CCOCC3)nc2n1CC(=O)Nc1ccc(C(F)(F)F)cc1Cl [Example 306, N-(2-Chloro-4-(trifluoromethyl)phenyl)-2-(2-(3,6-dihydro-2H-pyran-4-yl)-5-ethyl-6-(4-(3-hydroxyquinoline-2-carbonyl)piperazin-1-yl)-7-oxo-[1,2,4]triazolo[1,5-a]pyrimidin-4(7H)-yl)acetamide] | < 100 | < 100 |
| CCc1c(N2CCN(C(=O)c3nc4ccccc4cc3N)CC2)c(=O)n2nc(C3=CCOCC3)nc2n1CC(=O)Nc1ccc(C(F)(F)F)cc1Cl [Example 307, 2-(6-(4-(3-Aminoquinoline-2-carbonyl)piperazin-1-yl)-2-(3,6-dihydro-2H-pyran-4-yl)-5-ethyl-7-oxo-[1,2,4]triazolo[1,5-a]pyrimidin-4(7H)-yl)-N-(2-chloro-4 (trifluoromethyl)phenyl)acetamide] | 100 to 1000 | < 100 |
| CCc1c(N2CCN(C(=O)c3cnc4sc(Cl)nc4c3O)CC2)c(=O)n2nc(C3=CCOCC3)nc2n1CC(=O)Nc1ccc(C(F)(F)F)cc1F [Example 308, 2-(6-(4-(2-Chloro-7-hydroxythiazolo[5,4-b]pyridine-6-carbonyl)piperazin-1-yl)-2-(3,6-dihydro-2H-pyran-4-yl)-5-ethyl-7-oxo-[1,2,4]triazolo[1,5-a]pyrimidin-4(7H)-yl)-N-(2-fluoro-4-(trifluoromethyl)phenyl)acetamide] | < 100 | < 100 |
